How the values were obtained:
[1] = tested on: CD8+ T cells; test: In vitro immunogenicity: priming of CD8+ T cells with artificial APCs loaded with peptide/MHC and anti-CD28, multimer readout; type: cell-based, human; settings: for Wells positive [%]: HLA-A*02 restricted peptides, percentage of positive wells; for donors: HLA-A*02, percentage of positive donors; for wells: HLA-A*02, percentage of positive wells
Text: In order to obtain information regarding the immunogenicity of the TUMAPs of the present invention, the inventors performed investigations using an in vitro T-cell priming assay based on repeated stimulations of CD8+ T cells with artificial antigen presenting cells (aAPCs) loaded with peptide/MHC complexes and anti-CD28 antibody.
In order to perform in vitro stimulations by artificial antigen presenting cells loaded with peptide-MHC complex (pMHC) and anti-CD28 antibody, the inventors first isolated CD8+ T cells from fresh HLA-A*02 leukapheresis products via positive selection using CD8 microbeads (Miltenyi Biotec, Bergisch-Gladbach, Germany) of healthy donors obtained from the University clinics Mannheim, Germany, after informed consent.
PBMCs and isolated CD8+ lymphocytes were incubated in T-cell medium (TCM) until use consisting of RPMI-Glutamax (Invitrogen, Karlsruhe, Germany) supplemented with 10% heat inactivated human AB serum (PAN-Biotech, Aidenbach, Germany), 100 U/ml Penicillin/100 μg/ml Streptomycin (Cambrex, Cologne, Germany), 1 mM sodium pyruvate (CC Pro, Oberdorla, Germany), 20 μg/ml Gentamycin (Cambrex). 2.5 ng/ml IL-7 (PromoCell, Heidelberg, Germany) and 10 U/ml IL-2 (Novartis Pharma, Nürnberg, Germany) were also added to the TCM at this step.
Generation of pMHC/anti-CD28 coated beads, T-cell stimulations and readout was performed in a highly defined in vitro system using four different pMHC molecules per stimulation condition and 8 different pMHC molecules per readout condition.
The purified co-stimulatory mouse IgG2a anti human CD28 Ab 9.3 (Jung et al., 1987) was chemically biotinylated using Sulfo-N-hydroxysuccinimidobiotin as recommended by the manufacturer (Perbio, Bonn, Germany). Beads used were 5.6 μm diameter streptavidin coated polystyrene particles (Bangs Laboratories, Illinois, USA).
pMHC used for positive and negative control stimulations were A*0201/MLA-001 (peptide […] (SEQ ID NO. 664) from modified Melan-A/MART-1) and A*0201/DDX5-001 ([…] from DDX5, SEQ ID NO. 665), respectively.
800.000 beads/200 μl were coated in 96-well plates in the presence of 4×12.5 ng different biotin-pMHC, washed and 600 ng biotin anti-CD28 were added subsequently in a volume of 200 μl. Stimulations were initiated in 96-well plates by co-incubating […] CD8+ T cells with 2×10^5 washed coated beads in 200 μl TCM supplemented with 5 ng/ml IL-12 (PromoCell) for 3 days at 37° C. Half of the medium was then exchanged by fresh TCM supplemented with 80 U/ml IL-2 and incubating was continued for 4 days at 37° C. This stimulation cycle was performed for a total of three times. For the pMHC multimer readout using 8 different pMHC molecules per condition, a two-dimensional combinatorial coding approach was used as previously described (Andersen et al., 2012) with minor modifications encompassing coupling to 5 different fluorochromes. Finally, multimeric analyses were performed by staining the cells with Live/dead near IR dye (Invitrogen, Karlsruhe, Germany), CD8-FITC antibody clone SK1 (BD, Heidelberg, Germany) and fluorescent pMHC multimers. For analysis, a BD LSRII SORP cytometer equipped with appropriate lasers and filters was used. Peptide specific cells were calculated as percentage of total CD8+ cells. Evaluation of multimeric analysis was done using the FlowJo software (Tree Star, Oregon, USA). In vitro priming of specific multimer+ CD8+ lymphocytes was detected by comparing to negative control stimulations.

[2] = biological target: HLA-A*02:01 (Homo sapiens, UniProt P04439, D140Y/D185E/D98H/E176V/E277Q/G131W/G231S/I119V/I121R/I166T/I218V/L300P/L318F/N151K/N90K/P208A/P217A/Q86G/Q94H/R138H/R169H/T345S); test: MHC binding assay (UV-ligand exchange, β2m ELISA, peptide exchange yield); settings: MHC class I binding score; binding to HLA-A*02:01 ranged by peptide exchange yield (UV-ligand exchange, β2m ELISA)
Summary of the method: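 Peptide–HLA-A*02:01 complexes were formed by UV-mediated exchange of a UV-cleavable ligand for the test peptide. Exchange yield was measured by capturing complexes on streptavidin, detecting with HRP anti-β2m antibody (1 h, 37°C) and reading TMB absorbance at 450 nm.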

## 2 (SLLEADPFL; listed as Homo sapiens) [compound 2]
[1]
  Wells positive [%]: “+” (<20% = +)
[2]
  Peptide exchange: “+++” (≧50 = +++)

## 3 (SLASKLTTL; listed as Homo sapiens) [compound 3]
[1]
  Wells positive [%]: “+” (<20% = +)
[2]
  Peptide exchange: “++++” (≧75% = ++++)

## 5 (HLTEVYPEL; listed as Homo sapiens) [compound 5]
[1]
  Wells positive [%]: “+++” (50%-69% = +++)
[2]
  Peptide exchange: “+++” (≧50 = +++)

## 7 (SLVGLLLYL; listed as Homo sapiens) [compound 7]
[1]
  Wells positive [%]: “++” (20%-49% = ++)
[2]
  Peptide exchange: “++++” (≧75% = ++++)

## 8 (FTLGNVVGMYL; listed as Homo sapiens) [compound 8]
[1]
  Wells positive [%]: “+” (<20% = +)
[2]
  Peptide exchange: “++++” (≧75% = ++++)

## 11 (KIFEMLEGV; listed as Homo sapiens) [compound 11]
[1]
  Wells positive [%]: “+” (<20% = +)
[2]
  Peptide exchange: “+++” (≧50 = +++)

## 17 (GLLPGDRLVSV; listed as Homo sapiens) [compound 17]
[1]
  Wells positive [%]: “++” (20%-49% = ++)
[2]
  Peptide exchange: “+++” (≧50 = +++)

## 19 (FMVDNEAIYDI; listed as Homo sapiens) [compound 19]
[1]
  Wells positive [%]: “++” (20%-49% = ++)
[2]
  Peptide exchange: “++++” (≧75% = ++++)

## 36 (YVLEDLEVTV; listed as Homo sapiens) [compound 36]
[1]
  Wells positive [%]: “+” (<20% = +)
[2]
  Peptide exchange: “++” (≧20% = ++)

## 38 (FLLEDDIHVS; listed as Homo sapiens) [compound 38]
[1]
  Wells positive [%]: “+” (<20% = +)
[2]
  Peptide exchange: “+++” (≧50 = +++)

## 40 (TLLVKVFSV; listed as Homo sapiens) [compound 40]
[1]
  Wells positive [%]: “++” (20%-49% = ++)
[2]
  Peptide exchange: “+++” (≧50 = +++)

## 48 (ALAELYEDEV; listed as Homo sapiens) [compound 48]
[1]
  Wells positive [%]: “+” (<20% = +)
[2]
  Peptide exchange: “+++” (≧50 = +++)

## 49 (YLPAVFEEV; listed as Homo sapiens) [compound 49]
[1]
  Wells positive [%]: “++” (20%-49% = ++)
[2]
  Peptide exchange: “+++” (≧50 = +++)

## 56 (KLYEGIPVLL; listed as Homo sapiens) [compound 56]
[1]
  Wells positive [%]: “+” (<20% = +)
[2]
  Peptide exchange: “++++” (≧75% = ++++)

## 60 (SLTIDGIYYV; listed as Homo sapiens) [compound 60]
[1]
  Wells positive [%]: “++++” (> = 70% = ++++)
[2]
  Peptide exchange: “++++” (≧75% = ++++)

## 61 (FLQGYQLHL; listed as Homo sapiens) [compound 61]
[1]
  Wells positive [%]: “++” (20%-49% = ++)
[2]
  Peptide exchange: “++++” (≧75% = ++++)

## 79 (SLFIGEKAVLL; listed as Homo sapiens) [compound 79]
[1]
  Wells positive [%]: “+” (<20% = +)
[2]
  Peptide exchange: “+++” (≧50 = +++)

## 108 (ALFPGVALLLA; listed as Homo sapiens) [compound 108]
[1]
  Wells positive [%]: “++” (20%-49% = ++)
[2]
  Peptide exchange: “++++” (≧75% = ++++)

## 113 (GLLPTPLFGV; listed as Homo sapiens) [compound 113]
[1]
  Wells positive [%]: “+” (<20% = +)
[2]
  Peptide exchange: “+++” (≧50 = +++)

## 118 (KLIDNNINV; listed as Homo sapiens) [compound 118]
[1]
  Wells positive [%]: “+” (<20% = +)
[2]
  Peptide exchange: “+++” (≧50 = +++)

## 141 (YLDFSNNRL; listed as Homo sapiens) [compound 141]
[1]
  Wells positive [%]: “+” (<20% = +)
[2]
  Peptide exchange: “++” (≧20% = ++)

## 143 (LLLDITPEI; listed as Homo sapiens) [compound 143]
[1]
  Wells positive [%]: “+” (<20% = +)
[2]
  Peptide exchange: “++++” (≧75% = ++++)

## 150 (RLWEEGEELEL; listed as Homo sapiens) [compound 150]
[1]
  Wells positive [%]: “+” (<20% = +)
[2]
  Peptide exchange: “+++” (≧50 = +++)

## 152 (ILFEDIFDV; listed as Homo sapiens) [compound 152]
[1]
  Wells positive [%]: “++” (20%-49% = ++)
[2]
  Peptide exchange: “+++” (≧50 = +++)

## 157 (SLNDEVPEV; listed as Homo sapiens) [compound 157]
[1]
  Wells positive [%]: “+++” (50%-69% = +++)
[2]
  Peptide exchange: “++” (≧20% = ++)

## 166 (YLNHLEPPV; listed as Homo sapiens) [compound 166]
[1]
  Wells positive [%]: “++++” (> = 70% = ++++)
[2]
  Peptide exchange: “+++” (≧50 = +++)

## 191 (LLQEGQALEYV; listed as Homo sapiens) [compound 191]
[1]
  Wells positive [%]: “+++” (50%-69% = +++)
[2]
  Peptide exchange: “++” (≧20% = ++)

## 198 (KTINKVPTV; listed as Homo sapiens) [compound 198]
[1]
  Wells positive [%]: “++” (20%-49% = ++)
[2]
  Peptide exchange: “+++” (≧50 = +++)

## 199 (ALQDVPLSSV; listed as Homo sapiens) [compound 199]
[1]
  Wells positive [%]: “+” (<20% = +)
[2]
  Peptide exchange: “+++” (≧50 = +++)

## 215 (QLINHLHAV; listed as Homo sapiens) [compound 215]
[1]
  Wells positive [%]: “++” (20%-49% = ++)
[2]
  Peptide exchange: “+++” (≧50 = +++)

## 242 (AIAYILQGV; listed as Homo sapiens) [compound 242]
[1]
  Wells positive [%]: “+++” (50%-69% = +++)
[2]
  Peptide exchange: “++” (≧20% = ++)

## 247 (VLLPNDLLEKV; listed as Homo sapiens) [compound 247]
[1]
  Wells positive [%]: “+” (<20% = +)
[2]
  Peptide exchange: “+++” (≧50 = +++)

## 648 (LLWGNAIFL; listed as Homo sapiens) [compound 648]
[1]
  donors: +++ (50%-69 = +++)
  wells: ++ (20%-49% = ++)

## 652 (TLWYRAPEV; listed as Homo sapiens) [compound 652]
[1]
  donors: ++++ (> = 70% = ++++)
  wells: +++ (50%-69 = +++)

## 659 (ILFPDIIARA; listed as Homo sapiens) [compound 659]
[1]
  donors: +++ (50%-69 = +++)
  wells: + (<20% = +)

## 662 (KIQEILTQV; listed as Homo sapiens) [compound 662]
[1]
  donors: +++ (50%-69 = +++)
  wells: + (<20% = +)

## 663 (KIQEMQHFL; listed as Homo sapiens) [compound 663]
[1]
  donors: +++ (50%-69 = +++)
  wells: + (<20% = +)
